Measurements reported in patent US20230416257A1, “TOLL-LIKE RECEPTOR AGONIST” (priority 2020, published 2023).

Test system: antigen-specific T cells in the draining lymph nodes (LN) and spleen
Experiment: A/Vic murine vaccine model: cytokine secretion by antigen-stimulated T cells
Format: in vivo
Conditions: immunized mice, 5 days after tertiary immunization (day 33); comparison of UM-2014 and UM-1007; FIG. 4
Method: The adjuvanticity of liposomal formulations of UM-2014 (1 and 10 μg doses) was evaluated in an A/Vic murine vaccine model. Mice were intramuscularly immunized at day 0, 14, and 28, with blood collection at day 14 and day 28 (14dp1 and 14dp2, respectively). A tertiary immunization at day 28 was administered to assess cytokine production of antigen-specific T cells in the draining lymph nodes (LN) and spleen 5 days later (day 33).

## CCCCCCCCCCCCCCCC(=O)OC[C@H](COCCOCCOCCOP(=O)(O)OCCN1CCC(Cn2c(O)nc3c(N)nc(O[C@@H](C)CCC)nc32)CC1)OC(=O)CCCCCCCCCCCCCCC [UM-1007]
  cytokine secretion by antigen-stimulated T cells from draining LNs and spleen: very similar
